US11180529B2, “Alpha-v beta-6 integrin ligands and uses thereof” (Arrowhead Pharmaceuticals, Inc., priority 2016, dated 2021)
Non-standard residues stand in square brackets, D forms with d. No end group written: not given here. Cit = NC(=O)NCCC[C@H](N)C(=O)O; R(Me)2 = dimethyl-arginine; Abu = CC[C@H](N)C(=O)O; Aib = CC(C)(N)C(=O)O

What was measured:
[1] = system: SKOV3 (human ovarian carcinoma) cells, very low αvβ6 cell surface expression; assay: αvβ6 ligand binding, flow cytometry of Cy5-labeled ligand-polymer conjugates, SKOV3 negative-control cells; assay type: cell-based; conditions: Cy5-polymer conjugate 5 μg/ml, 37° C., 3 h; specific MFI ratio = sample MFI/no-ligand MFI
Protocol: (§1) Each αvβ6 ligand was attached to a reversibly modified 1170-100B polymer cargo molecule. The 1170-100B polymer cargo molecule (a 56:44 ethoxyethylamine acrylate:propyl acrylate copolymer having a MW of about 45000) was labeled with Cy5 (NHS linker) and combined with aldehyde-PEG24-ACit at a weight ratio of 2:1 (polymer:aldehyde-PEG24-ACit) in 50 mM HEPES pH 9.0 buffer for 1 h at RT to form (aldehyde-PEG24-ACit)n-1170-100B wherein n is an integer greater than 0. Typically, n was about 10.
(§2) The aldehyde-PEG24-ACit-modified polymer was then reacted with PEG12-ACit at a weight ratio of 1:8 (polymer:PEG12-ACit) in 50 mM HEPES, pH 9.0 buffer for 1 h at RT to form (aldehyde-PEG24-ACit)n-1170-100B-(CitA-PEG12)m, wherein m is an integer greater than 0.
(§3) The modified polymer was then purified using a sephadex G-50 spin column and concentration determined:
(§4) Each αvβ6 ligand was modified with HyNic to facilitate conjugation to the cargo molecule. Purified polymer was combined with αvβ6 ligand-(PEG)8-K-HyNic at a weight ratio of 1:1.9 (polymer: αvβ6 ligand) in 50 mM NaOAC-HOAc, pH 5.0 buffer at RT overnight to form the αvβ6 ligand-polymer conjugate. The αvβ6 ligand-polymer conjugate was purified using a sephadex G-50 spin column.
Conjugation efficiency was quantified by measuring Absorbance of the αvβ6-polymer conjugate at 354 nm using an extinction coefficient of […] M^−1 cm^−1 for bis-aryl hydrazone bond. […]
To assess for specificity of binding of the αvβ6 ligands to the αvβ6 integrin, each αvβ6 ligand or negative control peptide was conjugated to a Cy5-labeled polymer (as described above) and evaluated for binding to cells. […] Samples were analyzed on a BD Biosciences Canto II cytometer equipped with a violet (405 nm), blue (488 nm) and red (633 nm) lasers. […] These viable cells were then assessed for conjugate binding/uptake with the red laser as the Mean Fluorescence Intensity (MFI) of the Cy5 fluorophore. […] A specific MFI Ratio (sMFIr) for each αvβ6 ligand was determined by the formula: specific sample MFI value/no-ligand MFI value.

[2] = system: H2009 (human lung epithelial adenocarcinoma) cells, αvβ6 integrin expressing; assay: αvβ6 ligand binding, flow cytometry of Cy5-labeled ligand-polymer conjugates, H2009 αvβ6 positive cells; assay type: cell-based; conditions: Cy5-polymer conjugate 5 μg/ml, 37° C., 3 h, specific MFI ratio = sample MFI/no-ligand MFI
Protocol: as §1, §2, §3, §4
Conjugation efficiency was quantified by measuring Absorbance of the αvβ6-polymer conjugate at 354 nm using an extinction coefficient of […] M^−1 cm^−1 for bis-aryl hydrazone bond.
αvβ6-polymer conjugates were diluted with isotonic glucose solution to desired concentrations for further analysis.
To assess for specificity of binding of the αvβ6 ligands to the αvβ6 integrin, each αvβ6 ligand or negative control peptide was conjugated to a Cy5-labeled polymer (as described above) and evaluated for binding to cells. […] H2009 (human lung epithelial adenocarcinoma) and CAPAN-2 (human pancreas adenocarcinoma) cells served as the αvβ6 positive-control cell lines. Cells were detached from culturing flasks with Accutase, washed in PBS, and seeded into 5 ml polystyrene round-bottom tubes at 200,000 cells in 200 μl complete media (culturing media with supplements and fetal calf serum). αvβ6 ligand-polymer conjugates or no-ligand-polymer conjugates were added at 5 μg/ml (polymer-Cy5 concentration) to cells, mixed and incubated at 37° C. for 3 h. Incubation at 37° C. facilitated ligand/receptor interaction which may result in static binding to the extracellular cell surface and/or internalized ligand/receptor complexes. The mixture was re-suspended at 1 h intervals. Following a 3 h incubation, cells were washed 2× with 4 ml chilled buffer (PBS-2% FCS) and re-suspended in 200 μl buffer containing 10 μM SYTOX blue stain for live/dead cell gating. Samples were analyzed on a BD Biosciences Canto II cytometer equipped with a violet (405 nm), blue (488 nm) and red (633 nm) lasers. Viable cells were initially gated as the SYTOX blue negative population on the C detector with the violet laser. These viable cells were then assessed for conjugate binding/uptake with the red laser as the Mean Fluorescence Intensity (MFI) of the Cy5 fluorophore. Data analyses were performed with FlowJo v10.1 software. A specific MFI Ratio (sMFIr) for each αvβ6 ligand was determined by the formula: specific sample MFI value/no-ligand MFI value.

Substance	MFI SKOV3 [1]	MFI H2009 [2]	MFI H2009 ([2]; listed as AcR(Me)2GDLATLRQL)
Ac-R(Me)2GDLATLRQL (Ac-[R(Me)2]GDLATLRQL) [negative control peptide]	0.9	1	did not show significant binding
CH3(CH2)4-RGDLAAbuLCitAib ({CH3(CH2)4}-RGDLA[Abu]L[Cit][Aib])		4.1	
Dap(guanidino)-GDLATLRQL ({Dap(guanidino)}-GDLATLRQL)	1.4	3.4	
CH3(CH2)2-RGDLAAbuLCitAib ({CH3(CH2)2}-RGDLA[Abu]L[Cit][Aib])		3.9	
des-amino-RGDLATLRQL ({des‑amino}-RGDLATLRQL; not fully specified (residue 1); printed as des-amino-RGDLATLRQL)	0.8	1.1	
CH3CH2-RGDLAAbuLCitAib (CH3CH2-RGDLA[Abu]L[Cit][Aib])		4.4	
meta-guanidino-benzoic-GDLATLRQL ({meta‑guanidino‑benzoic}-GDLATLRQL)		4.5	
CH3(CH2)3-RGDLAAbuLCitAib ({CH3(CH2)3}-RGDLA[Abu]L[Cit][Aib])		4.7	
